These results are taken from patent US20240207265A1, “TREATMENT OF CNS DISEASES WITH sGC STIMULATORS” (Tisento Therapeutics Inc., priority 2021, published 2024).

One data set deals with sGC enzyme. Kind of data set: cGMP GloSensor cell-based assay, 384-well format (HEK293). Further details: species or system human. The following applies: HEK293 GloSensor 40F cGMP cells, 10 μM DETA-NONOate, geometrical mean; read-out: Glo EC50. The text has this:
Human embryonic kidney cells (HEK293) cells expressing GloSensor™ 40F cGMP (Part No: CS182801, Promega) were used to evaluate the activity of test compounds. The luminescent biosensors (engineered luciferase) that were incorporated into these cells detect cGMP formed by the compounds stimulating the sGC enzyme and emit luminescence.
cGMP GloSensor cells were maintained in Dulbecco's Modification of Eagle's Medium (DMEM) supplemented with fetal bovine serum (FBS, 10% final) and hygromycine (200 ug/ml). The day before assay, cells were plated in DMEM with 10% FBS in a 50 μL volume at a density of 1.5×10^4 cells/well in a poly-D-lysine coated 384-well flat white-bottom plate (Corning Cat No 35661). Cells were incubated overnight at 37° C. in a humidified chamber with 5% CO2. The next day, medium was removed and cells were replaced with 40 ul/well of GloSensor™, 2 mM (Promega Cat No E1291). Cells were treated for 90 minutes at 25° C. to allow the substrate to equilibrate in the cells. Test compounds and Diethylenetriamine NONOate (DETA-NONOate) was diluted to 3 mM (20×) in serum-free CO2 independent medium and serially diluted at 4× dilutions to create 5× dose curve from which 10 ul was added to the wells (x μM concentration for test compound solution and 10 μM concentration for DETA-NONOate solution; wherein x is one of the following final concentrations: 30 μM, 7.5 μM, 1.9 μM, 469 nM, 117 nM, 29.3 nM, 7.3 nM, 1.83 nM, 0.46 nM, 0.11 nM, 0.03 nM) For the kinetics studies, luminescense was measured right away for 0.2 sec per well with Envision (Perkin Elmer). For endpoint SAR screening, data were collected after 55 min incubation at room temperature.
(§1) Concentration response data were analyzed using a 4-parameter fit (log (agonist) vs. response-variable slope). The EC50 was interpolated from the curve fit and is defined as the concentration at which the compound elicits 50% of its maximal response. When the experiment was carried out multiple times for a given compound, the geometrical mean of all experiments is reported.

In a further data set the test system is sGC. Nature of the data set: cGMP neuronal cell-based assay (rat primary neurons). To be noted: rat primary hippocampal neurons, DETA-NO 10 μM or 30 μM, cGMP by LC-MS/MS; read-out: sGC Neuron EC50. The method, then: Rat primary neurons were isolated from fetuses of 18-day pregnant Sprague-Dawley females. The fetuses were collected in Hanks' balanced salt solution (HBSS) and brains were rapidly removed. The cerebral hippocampi were isolated and mechanically fragmented. Further tissue digestion was performed with 0.25% (wt/vol) trypsin solution in HBSS without Ca2+ and Mg2+ for 15 min at 37° C. After trypsination, cells were washed and resuspended in neurobasal medium supplemented with 0.5 mM L-glutamine, 12.5 uM glutamic acid, 2% B-27 and 100 U/mL penicillin, and 100 μg/mL streptomycin. Cells were plated at a density of 26×10^3 or 3×10^4 or 4×10^4 cells/well in a poly-D-lysine coated 384-well flat clear-bottom plate (Corning Cat No 354662). Cells were incubated 6-7 days at 37° C. in a humidified chamber with 5% CO2. Media was removed and cells were washed 1× with HBSS containing Ca2+ and Mg2+, and replaced with 40 uL HBSS containing 0.5 mM IBMX, and incubated for 15 minutes at 37° C. 10 uL of a 5× stock of test compounds with diethylenetriamine NONOate (DETA-NO) was added. Final concentration of DETA-NO was either 10 μM or 30 μM. Cells were incubated for 20 min at 37° C. Medium was removed, 50 uL of ice-cold 10% acetic acid was added, and incubated for 60 minutes at 4° C. Following centrifugation at 4° C. for 5 minutes at 1000×g to pellet cell debris, the supernatant was aspirated to a clean plate and the samples were analyzed for cGMP content. cGMP concentrations were determined from each sample using LC-MS/MS.
as §1

A short description of data set [1]: Rat cerebrospinal fluid (CSF) pharmacokinetics. It counts as in vivo. To be noted: male, Sprague-Dawley; rat CSF/unbound plasma, PO 3 mg/kg. The method, then: PK in rats was determined following oral dosing. For the oral (PO) experiments, a group of 6 male Sprague-Dawley rats with an indwelling catheter placed in the cisterna magna were used. The PO group was dosed with 3.0, or 10 mg/kg of a compound formulated as a solution in PEG400 or suspension in 0.5% Tween 80 and 0.5% Methylcellulose in water. PO doses were administered by oral gavage and delivered to the stomach using a syringe and gavage tube. Following oral dosage administration, the gavage tube was flushed with approximately 0.5 mL of water to ensure complete delivery of the full dose.
Plasma samples were collected as follows: samples of CSF and blood were collected at 1 hour, 2, and optionally at 4 hours post-dosing. CSF samples (0.05 mL) were collected through the intracisternal catheter. Blood samples (0.25 mL) were collected through tail nick sampling. These samples were kept on ice until processed for plasma. Blood samples were centrifuged at 3200 rpm for 5 minutes at approximately 5° C. within 1 hour of collection. Plasma was directly transferred to individual Eppendorf tubes (0.125 mL). Plug caps were placed on the tubes and the tubes frozen at approximately −70° C. and stored until analysis. Plasma and CSF was collected and analyzed for the presence of a compound.
The compound in question and the internal standard were extracted from plasma by precipitation and from CSF by either precipitation or dilution. Samples were analyzed using liquid chromatography (LC) with tandem mass spectrometric detection (MS/MS) using electrospray ionization. The standard curve ranged from 0.1 to 1000 ng/mL. Results of the compounds described herein in this assay are illustrated in Table G below (for a 10 mg/kg dose and/or 3 mg/kg of the compound). Compound concentrations from several animals were combined to give the geometrical mean at each specific dosage and timepoint.
Kp,uu is defined as the concentration ratio of unbound drug in CSF to unbound drug in plasma. Unbound drug in plasma (or free plasma concentration) is calculated by multiplying the total plasma concentration by the unbound fraction as determined by plasma protein binding. The CSF concentration is then divided by the free plasma concentration to determine the Kp,uu. (See e.g., Di et al., J. Med. Chem., 56, 2-12 (2013))

A word on the EC50: it is the concentration needed to bring the measured effect to its halfway point. For `Oc1nc(-c2cn3ccnc3c(Cc3cccc(F)c3)n2)ncc1F` [Compound I-1, 5-fluoro-2-(8-(3-fluorobenzyl)imidazo[1,2-a]pyrazin-6-yl)pyrimidin-4-ol], the EC50 in the data set on sGC enzyme lay in the range of 100 to 1000 nM. In addition, in the data set on sGC, the EC50 was in the range of 100 to 1000 nM. For the same molecule, in data set [1], the Kp uu at 1 h is ≤ 1, the Kp uu at 2 h was in the range of 1 to 2 and the Kp uu at 4 h was ≤ 1. With `Oc1nc(-c2cn3ccnc3c(Cc3cc(F)cc(F)c3)n2)ncc1F` [Compound I-7, 2-(8-(3,5-Difluorobenzyl)imidazo[1,2-a]pyrazin-6-yl)-5-fluoropyrimidin-4-ol], the EC50 was 100 to 1000 nM with sGC enzyme and ≤ 100 nM in the data set with sGC. As to `Oc1nc(-c2cn3ncnc3c(Cc3cccc(F)c3F)n2)ncc1F` [Compound I-10, 2-(8-(2,3-Difluorobenzyl)-[1,2,4]triazolo[1,5-a]pyrazin-6-yl)-5-fluoropyrimidin-4-ol], in the data set on sGC enzyme, the EC50 lay within 100 to 1000 nM.

On to `Oc1nc(-c2cn3c(F)cnc3c(Cc3ccccc3F)n2)ncc1F` [Compound I-9], for which the EC50 in the data set with sGC enzyme was 100 to 1000 nM; in the data set on sGC, ≤ 100 nM.

On to `Cc1ccc(Cc2nc(-c3ncc(F)c(O)n3)cn3ccnc23)cc1F` [Compound I-6, 5-Fluoro-2-(8-(3-fluoro-4-methylbenzyl)imidazo[1,2-a]pyrazin-6-yl)pyrimidin-4-ol], for which the EC50 in the data set with sGC enzyme and in the data set with sGC was ≤ 100 nM each time. On to `Oc1nc(-c2cn3ncnc3c(Cc3cccc(F)c3)n2)ncc1F` [Compound I-11, 5-Fluoro-2-(8-(3-fluorobenzyl)-[1,2,4]triazolo[1,5-a]pyrazin-6-yl)pyrimidin-4-ol], for which the EC50 in the data set on sGC enzyme was 100 to 1000 nM. On to `Oc1nc(-c2cn3ncnc3c(Cc3cc(F)ccc3F)n2)ncc1F` [Compound I-12, 2-(8-(2,5-Difluorobenzyl)-[1,2,4]triazolo[1,5-a]pyrazin-6-yl)-5-fluoropyrimidin-4-ol], for which the EC50 in the data set with sGC enzyme is 100 to 1000 nM; in the data set with sGC it was ≤ 100 nM. `Cc1cnc(-c2cn3ccnc3c(Cc3ccccc3F)n2)nc1O` [Compound I-8, 2-(8-(2-fluorobenzyl)imidazo[1,2-a]pyrazin-6-yl)-5-methylpyrimidin-4-ol]: the EC50 with sGC enzyme is > 1000 nM. Turning to `Oc1nc(-c2cn3ncnc3c(Cc3cc(F)cc(F)c3)n2)ncc1F` [Compound I-13, 2-(8-(3,5-Difluorobenzyl)-[1,2,4]triazolo[1,5-a]pyrazin-6-yl)-5-fluoropyrimidin-4-ol], in the data set on sGC enzyme, the EC50 fell in the range of 100 to 1000 nM. `Cc1c(F)cc(Cc2nc(-c3ncc(F)c(O)n3)cn3ccnc23)cc1F` [Compound I-3, 5-Fluoro-2-(8-(3,5-difluoro-4-methylbenzyl)imidazo[1,2-a]pyrazin-6-yl)pyrimidin-4-ol]: the EC50 with sGC enzyme and with sGC was ≤ 100 nM each time.
